Consider seven compounds from patent US12071596B2, “Metal working fluids biocide” (Dow Global Technologies LLC, priority 2021, dated 2024).

The assay deals with mixed microbial inoculum. In words: Microbial growth inhibition test (challenge test) in diluted metalworking fluid. It is filed as cell-based. The note with it: 0.91 wt. % amine in diluted metalworking fluid, 30° C.; for Challenge Test Results 2nd dose Day 14: 2nd dosing 0.5 ml mixed inoculum, read at Day 14; for Challenge Test Results 3rd dose Day 21: 3rd dosing 1 ml mixed inoculum, read at Day 21; for Challenge Test Results 4th dose Day 28: 4th dosing 1 ml mixed inoculum, read at Day 28; for Challenge Test Results 5th dose Day 35: 5th dosing 3 ml mixed inoculum, read at Day 35; for Challenge Test Results 1st dose Day 7: 50 g sample, 1st dosing 0.5 ml mixed inoculum, read at Day 7. How it is done: Test 1—Microbial Growth Inhibition Test
To test the novel disclosed microbial growth control agent the diluted metal working fluid shown in Table 1 is mixed with the various ether amines listed in Table 2. Firstly, using 250 mL glass beaker to prepare 100 g the basic diluted metalworking fluid with the recipe in Table 1 except amine ingredient, stirring for getting clear solution. Repeating the first step to get 8 basic diluted metalworking fluid solutions. Secondly, adding every kind of amine or amine combination from Table 2 as comparative example 1-2 and example 1-6. Thirdly, 50 g the comparative example 1-2 and example 1-6 into 8 petri dishes with a diameter of 10 cm and dosed with 0.5 ml of mixed microbial inoculum. Measuring the microbial growth in the petri dishes after 7 days and repeating to dose the mixed microbial inoculum and measuring them in 5 times. For the first and second dosing, 0.5 ml mixed inoculum is used; in third and fourth dosing, 1 ml mixed inoculum is used; and in the fifth dosing, 3 ml mixed inoculum is used The MWF microbial inoculum was prepared by adding 0.1 mL of each bacterial overnight broth culture and 1.0 mL of each yeast broth culture to the 10 mL of mold suspension and blending. The microbial strains used in this experiment are listed in Table 3 below (8 bacteria, 2 molds and 2 fungi). These strains were cultivated separately in nutrient broth and then blend them together. The mixed strains were then injected into each tested MWF and amine sample and mixed well.
50 grams of each of the MWF treated with amine samples (e.g., Examples 1-5 and Comparative Examples 1-2) were dosed with 0.5 ml of mixed microbial inoculum on Day 0 of this experiment. This inoculation introduces around […] colony forming units per milliliter of sample, (CFU/ml) of microorganisms.
The mixed inoculated samples where then incubated at 30° C. to determine the biocidal effect of the tested amines on the microbes. After seven days, the number of microorganisms surviving in the petri dish was observed and if the colony growth was less than 10, it was considered as PASS. After measuring the number of surviving microorganisms, another round of dosing with the mixed microbial inoculum was complete. The step of observation and subsequent dosing was done 5 times to challenge the microbial growth inhibition capabilities of the tested examples. For the first and second dosing, 0.5 ml mixed inoculum was used; in third and fourth dosing, 1 ml mixed inoculum was used; and in the fifth dosing, 3 ml mixed inoculum is used.

In the case of `COCC(C)N` (centres unmarked) [Example 1, 1-methoxy-2-propanamine], the “Challenge Test Results 2nd dose Day 14” value is on record as “Pass (if the colony growth was less than 10, it was considered as PASS)”; the “Challenge Test Results 3rd dose Day 21” value is “Pass (if the colony growth was less than 10, it was considered as PASS)”; the “Challenge Test Results 4th dose Day 28” value was “Pass (if the colony growth was less than 10, it was considered as PASS)”; the “Challenge Test Results 5th dose Day 35” value is “Pass (if the colony growth was less than 10, it was considered as PASS)”. For the same compound, the “Challenge Test Results 1st dose Day 7” value is recorded as “Pass (if the colony growth was less than 10, it was considered as PASS)”.

As for `CCCCOCC(C)N` (centres unmarked) [Example 2, 1-butoxy-2-propanamine], the “Challenge Test Results 2nd dose Day 14” value is “Pass (if the colony growth was less than 10, it was considered as PASS)”; the “Challenge Test Results 3rd dose Day 21” value is “Pass (if the colony growth was less than 10, it was considered as PASS)”; the “Challenge Test Results 4th dose Day 28” value is “Pass (if the colony growth was less than 10, it was considered as PASS)”; the “Challenge Test Results 5th dose Day 35” value is “Pass (if the colony growth was less than 10, it was considered as PASS)”. The “Challenge Test Results 1st dose Day 7” value was “Pass (if the colony growth was less than 10, it was considered as PASS)”.

On to `CCCCOCCN` [Example 3, 2-butoxy-ethanamine], for which the “Challenge Test Results 2nd dose Day 14” value is “Pass (if the colony growth was less than 10, it was considered as PASS)”; the “Challenge Test Results 3rd dose Day 21” value is “Pass (if the colony growth was less than 10, it was considered as PASS)”; the “Challenge Test Results 4th dose Day 28” value was “Pass (if the colony growth was less than 10, it was considered as PASS)”; the “Challenge Test Results 5th dose Day 35” value is “Pass (if the colony growth was less than 10, it was considered as PASS)”. The “Challenge Test Results 1st dose Day 7” value was “Pass (if the colony growth was less than 10, it was considered as PASS)”.

For the compound `CCCOCC(C)OCC(C)OCC(C)N` (centres unmarked) [Example 4, 1-[1-methyl-2-(1-methyl-2-propoxyethoxy)ethoxy]-2-propanamine], the “Challenge Test Results 2nd dose Day 14” value is on record as “Pass (if the colony growth was less than 10, it was considered as PASS)”; the “Challenge Test Results 3rd dose Day 21” value is on record as “Pass (if the colony growth was less than 10, it was considered as PASS)”; the “Challenge Test Results 4th dose Day 28” value is given as “Pass (if the colony growth was less than 10, it was considered as PASS)”; the “Challenge Test Results 5th dose Day 35” value is reported as “Pass (if the colony growth was less than 10, it was considered as PASS)”. In addition, the “Challenge Test Results 1st dose Day 7” value was “Pass (if the colony growth was less than 10, it was considered as PASS)”.

As for `CCCCOCC(C)OCC(C)N` (centres unmarked) [Example 5, 2-propanamine, 1-(2-butoxy-1-methylethoxy)-], the “Challenge Test Results 2nd dose Day 14” value is on record as “Pass (if the colony growth was less than 10, it was considered as PASS)”; the “Challenge Test Results 3rd dose Day 21” value is on record as “Pass (if the colony growth was less than 10, it was considered as PASS)”; the “Challenge Test Results 4th dose Day 28” value is listed as “Pass (if the colony growth was less than 10, it was considered as PASS)”; the “Challenge Test Results 5th dose Day 35” value is “Pass (if the colony growth was less than 10, it was considered as PASS)”. Also, the “Challenge Test Results 1st dose Day 7” value is listed as “Pass (if the colony growth was less than 10, it was considered as PASS)”.

Turning to `CCCOCC(C)OCC(C)N` (centres unmarked) [Example 6, 1-(1-methyl-2-propoxyethoxy)-2-propanamine], the “Challenge Test Results 2nd dose Day 14” value was “Pass (if the colony growth was less than 10, it was considered as PASS)”; the “Challenge Test Results 3rd dose Day 21” value was “Pass (if the colony growth was less than 10, it was considered as PASS)”; the “Challenge Test Results 4th dose Day 28” value is reported as “Pass (if the colony growth was less than 10, it was considered as PASS)”; the “Challenge Test Results 5th dose Day 35” value is “Pass (if the colony growth was less than 10, it was considered as PASS)”. Moreover, the “Challenge Test Results 1st dose Day 7” value is “Pass (if the colony growth was less than 10, it was considered as PASS)”.

With `CC(C)(N)CO` [compound 2, 2-amino-2-methyl-1-propanol, reference compound], the “Challenge Test Results 2nd dose Day 14” value is recorded as “Pass (if the colony growth was less than 10, it was considered as PASS)”; the “Challenge Test Results 3rd dose Day 21” value is “Pass (if the colony growth was less than 10, it was considered as PASS)”; the “Challenge Test Results 4th dose Day 28” value is reported as “Pass (if the colony growth was less than 10, it was considered as PASS)”; the “Challenge Test Results 5th dose Day 35” value was “Pass (if the colony growth was less than 10, it was considered as PASS)”. Moreover, the “Challenge Test Results 1st dose Day 7” value was “Pass (if the colony growth was less than 10, it was considered as PASS)”.
